Values quoted from earlier work, collected in patent US7064136B2, “Compounds” (AstraZeneca AB, priority 2000, dated 2006).
Where two headings read alike, the source gives them in different places. Non-standard residues stand in square brackets, D forms with d. Residues, ends and D or L forms follow the SMILES beside them. *: point of attachment. Cyclohexanecarbonyl = O=C(C1CCCCC1)*

Experiments:
Neurokinin receptor [1] = details: Elevated plus-maze
Neurokinin receptor [2] = system: Neurokinin receptor
Neurokinin receptor [3] = details: Forced swim test (depression model); anti-depressant (only at 30 mg/kb bid); Vassout et al Neuropeptides 26/S1:38, 1994
Neurokinin receptor [4] = details: Light-dark box
Neurokinin receptor [5] = details: Marmoset human intruder; Walsh et al., Psychopharmacology 121:186-191, 1995
[6] = Teixeira et al., Eur J Pharmacol 5;311(1):7-14, 1996
[7] = Stratton et al., Eur. J. Pharmacol. 250: R11-12, 1993
[8] = Walsh et al., Psychopharmacology 121:186-191, 1995

Row | Structure (SMILES) | Outcome (Neurokinin receptor [1]; [6]) | Outcome (Neurokinin receptor [4]; [7]) | Outcome (Neurokinin receptor [4]; [8]) | Outcome (Neurokinin receptor [5]) | further results
1 | Cc1cc(C)cc(C(=O)N2CC[C@H](NCc3ccnc4ccccc34)C[C@H]2Cc2ccccc2)c1 [CGP 49823] | – | – | – | – | Outcome (Neurokinin receptor [1]; Vassout et al Neuropeptides 26/S1:38, 1994): inactive anti-; Outcome (Neurokinin receptor [2]; Social interaction test, Vassout et al Neuropeptides 26/S1:38, 1994): anxiolytic; Outcome (Neurokinin receptor [2]; Social interaction, File Pharm Bio B 58(3):747-752, 1997): anxiolytic; Outcome (Neurokinin receptor [3]): depressant
2 | CN(Cc1ccccc1)C(=O)[C@H](Cc1ccc2ccccc2c1)NC(=O)[C@@H]1C[C@@H](O)CN1C(=O)c1cn(C)c2ccccc12 [FK888] | anxiolytic | – | – | – | –
3 | C[C@H](NC(=O)CNC(=O)C1CCCCC1)C(=O)N[C@H](Cc1c[nH]c2ccccc12)C(=O)N[C@@H](Cc1ccccc1)C(=O)N(C)C [GR100679] (Cyclohexanecarbonyl-GA[dW]F-NMe2) | – | anxiolytic | – | – | –
4 | COC1(C[S@@+]([O-])c2ccccc2)CCN(CCc2c[nH]c3ccc(F)cc23)CC1 [GR159897] | – | – | anxiolytic | anxiolytic | –
5 | CC(=O)NC1(c2ccccc2)CCN(CC[C@H](CN(C)C(=O)c2ccccc2)c2ccc(Cl)c(Cl)c2)CC1 [SR48968] | anxiolytic | anxiolytic | anxiolytic | anxiolytic | –
